Tests used:
[1] = Brain tissue binding (BTB), rapid equilibrium dialysis; type: in vitro ADME, Sprague Dawley rat; settings: 1 μg/mL in rat brain homogenate, 37° C., 6 h dialysis, mean of n = 3; for fraction unbound at 6 h, 1 μg/mL: male, Sprague Dawley, pH 7.4, read-out: Rat Brain fu
Experimental: Method for Determination of Plasma Protein Binding (PPB) and Brain Tissue Binding (BTB) Compound Preparation • Compounds were dissolved in DMSO to give a 1 mg free base/mL solution, before further dilution to 100 μg/mL in acetonitrile (100 μL of 1 mg/mL into 900 μL acetonitrile). Matrix Preparation • On the morning of dialysis, control male Sprague Dawley rat plasma and brain, previously stored at −80° C. were thawed at room temperature. Plasma was checked for pH and if necessary adjusted to 7.4 with 1M HCl. Plasma was then centrifuged (2000 g for 10 min) and the brains diluted with 2 mL of Phosphate Buffered Saline (pH 7.4) per gram of tissue and homogenised using a mechanical homogeniser. An aliquot (10 μL) of the 100 μg/mL acetonitrile compound solution was then added to 1 mL of plasma and brain homogenate and vortex mixed to give a final compound concentration of 1 μg/mL in matrix. RED Plate Preparation • The Rapid Equilibrium Dialysis (RED) plate (Thermo Scientific) was prepared in accordance with the manufacturers guidelines i.e. the base plate was soaked in 20% (v/v) ethanol for 10 min and then rinsed twice with deionised water before being allowed to dry. The base plate was then filled with the appropriate number of disposable inserts (n=3 per compound) (Thermo Scientific) and matrix containing 1 μg/mL compound added into the matrix chamber of the inserts (200 μL) and an aliquot (350 μL) of PBS added to the buffer chamber. The plate was then covered with an adhesive and incubated in air at 37° C. for 6 h with 130 rpm agitation. Sampling • Following the 6 h incubation, the seal was removed and an aliquot (50 μL) taken from the PBS chambers and dispensed into Micronics tubes. Also, an aliquot (50 μL) was removed from the matrix chambers and placed into separate Micronics tubes. Plasma and brain was then matrix matched with 50 μL of drug-free PBS and the PBS samples with 50 μL of the corresponding drug-free matrix, to give equal final compositions and volumes […]. Sample Analysis • Samples were vortex mixed and an aliquot (300 μL) of acetonitrile containing 0.1% formic acid and 100 ng/mL of an appropriate internal standard added. Samples were then mixed and centrifuged (2000 g for 15 min) and an aliquot of the supernatant (100 μL) removed into a 96-deep well plate and diluted with an equal volume of water ready for analysis by LC-MS/MS. • The following data was obtained for the following compounds in the above assay (Table 5).

[2] = system: Aβ40; assay: Amyloid detection: Aβ40 in rat brain and CSF after oral dosing (Wako ELISA); type: in vivo, Sprague Dawley rat; settings: 10 mg/kg p.o.
Experimental: Male Sprague Dawley rats were acquired from Charles River UK Ltd. (Margate, UK) and housed according to UK Home Office guidelines. Drugs were made up to the appropriate concentrations in 0.5% methyl cellulose. Animals were dosed orally (2 mL/kg) by gavage at the doses outlined in Tables 1 to 4 below. At the time points post-dosing, specified in the Tables 1 to 4 below the animals were administered an i.p. injection of sodium pentobarbitone (approximately 330 mg/kg for terminal anaesthesia). Using a guillotine, the animals were decapitated and trunk blood collected into 15 ml Falcon tubes containing 100 IU heparin. Blood was vortexed followed by centrifugation at 6000 rpm, 4° C. for 5 minutes. Plasma was collected for DMPK and ELISA assays and stored at −80° C. until use. Brains were dissected out and divided along the midline, weighed and stored at −80° C. until further use. Amyloid Detection 100 ml of chilled 0.2% diethyl amine (DEA) in 50 mM NaCl (pH 10) was freshly prepared and 1 ml/25 mg brain tissue was added to each hemisphere (i.e. 40× brain volume). The brains were immediately homogenized using a Polytron PT 1200 for 1.5 minutes and samples left to incubate on ice for one hour after homogenisation. 3 ml of the homogenate was transferred to a polyallomer tube (Beckman #362333) and spun at 133000×g (55,000 rpm) for 45 min at 4° C. The supernatant was then neutralised to pH 8-8.3 by adding 1/10 volume 0.5M Tris/HCl, pH 6.8. The samples can be used fresh or snap frozen on dry-ice and stored at −80° C. until required for analysis The Wako Aβ40 ELISA kit (Code No. 294-62501) uses the monoclonal antibody BNT77, raised against epitope Aβ(11-28) and the monoclonal antibody BA27, which specifically detects the C-terminal portion of Aβ40. This kit is used for the quantitative determination of human or rat Aβ(1-40) and also N-terminally truncated Aβ40 species (Aβ(x-40)) in biological matrices such as tissue culture medium, tissue homogenate, CSF and plasma. For analysis, plasma and brain samples are diluted 1:1 with the standard diluent contained in the kit and CSF samples are diluted 1:8 with the standard diluent contained in the kit. The assay is carried out according to manufacturers instructions and samples are analysed in duplicate. Data is analysed using Microsoft Excel 2003 and statistical analysis is carried out using Genstat 9th Edition.

[3] = Human liver microsomal stability assay; type: in vitro ADME; settings: 0.1 μmol/L compound, 30 min, 37° C., NADPH generating system
Experimental: Human Liver Microsomal Stability Assay The compound was dissolved in DMSO to prepare 1 mmol/L DMSO solution. The DMSO solution was diluted with distilled water to prepare 1 μmol/L compound dosing solution (DMSO conc.: 0.1%). 105 μL of reaction buffer (1 mol/L phosphate buffer (pH 7.4)/1 mmol/L EDTA (pH 7.4)/distilled water=1/1/5, v/v/v), 15 μL of 1 μmol/L compound dosing solution, and 15 μL of rat or human liver microsomes (5 mg/mL) were mixed, and preincubated for 5 min at 37° C. Metabolic reaction was initiated by adding 15 μL of NADPH generating system (3.3 mmol/L β-NADPH+, 80 mmol/L glucose 6-phosphate, 1 unit/mL glucose 6-phosphate dehydrogenase, 60 mmol/L MgCl2). For the control sample, NADPH generating system was replaced with 60 mmol/L MgCl2. The 150 μL of reaction mixture (final compound conc.: 0.1 μmol/L, final DMSO conc.: 0.01%) was incubated for 30 min at 37° C., and the reaction was terminated by adding 150 μL of methanol/acetonitrile solution containing an appropriate internal standard compound. The sample was vortexed and centrifuged, and obtained supernatant was subject to LC/MS analysis.

| SMILES | Rat BTB (%) [1] | fraction unbound at 6 h, 1 μg/mL [1] | reduction of Aβ40 in the CSF ([2]; 4 hours) | reduction of Aβ40 in the brain ([2]; 4 hours) | reduction of Aβ40 in the CSF ([2]; 6 hours) | reduction of Aβ40 in the brain ([2]; 6 hours) | HLM stability: percentage of parent remaining upon 30 minute incubation with human liver microsomes [3] |
| --- | --- | --- | --- | --- | --- | --- | --- |
| COc1cnc(C(=O)Nc2ccc(F)c([C@]34CO[C@H](CF)[C@H]3CSC(N)=N4)c2)cn1 [Example 2, N-(3-((4aS,5S,7aS)-2-amino-5-(fluoromethyl)-4a,5,7,7a-tetrahydro-4H-furo[3,4-d][1,3]thiazin-7a-yl)-4-fluorophenyl)-5-methoxypyrazine-2-carboxamide] | 93.4% | 0.066 | 85% | 63% | 69% | 65% | 82.0% |
| COc1cnc(C(=O)Nc2ccc(F)c([C@]34CO[C@H](C(F)F)[C@H]3CSC(N)=N4)c2)cn1 [Example 3, N-(3-((4aS,5S,7aS)-2-amino-5-(difluoromethyl)-4a,5,7,7a-tetrahydro-4H-furo[3,4-d][1,3]thiazin-7a-yl)-4-fluorophenyl)-5-methoxypyrazine-2-carboxamide] | 96.5% | 0.035 | 75% | 58% | 71% | 61% | 73.3% |
| COc1cnc(C(=O)Nc2cc(F)c(F)c([C@]34CO[C@H](CF)[C@H]3CSC(N)=N4)c2)cn1 [Example 4, N-(3-((4aS,5S,7aS)-2-amino-5-(fluoromethyl)-4a,5,7,7a-tetrahydro-4H-furo[3,4-d][1,3]thiazin-7a-yl)-4,5-difluorophenyl)-5-methoxypyrazine-2-carboxamide] | 97.9% | 0.021 | 67% | 51% | 63% | 42% | 78.6% |

Reference: patent publication US9175013B2, “Fused aminodihydrothiazine derivatives” (Eisai R&D Management Co., Ltd., priority 2011, dated 2015)
